Assay [1] concerns the target recombinant human EGFR exon 19 deletion/C797S double mutant protein (Homo sapiens (Human), UniProt P00533, C797S/DEL746-750). The assay is described as follows: Biological Activity Assay C: biochemical assay against EGFR exon 19 deletion/C797S protein (EGFR d19/CS). The method in brief: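 Compounds were tested as 16-point serial dilutions (final DMSO 2.5%) with a Phosphosens peptide sensor/ATP working solution (40 uM/4 mM). The signal was read kinetically over 90 cycles at 120 s intervals. IC50s came from 4-parameter fits of per-well slopes.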

In the next assay the test system is BaF3_EGFR LR/CS cells. The assay is described as follows: Biological Activity Assay D: BaF3 cell proliferation assay, EGFR L858R/C797S mutant (BaF3 LR/CS). Type of assay: cell-based. The note with it: Ba/F3 EGFR, read-out: BaF3 LR/CS IC50.
For a further assay, the system named is Ba/F3_EGFR WT cells. The assay is described as follows: Biological Activity Assay D: BaF3 cell proliferation assay, EGFR wild-type (BaF3 WT). The format is cell-based. The note with it: Ba/F3 EGFR, read-out: BaF3 WT IC50.
Assay [2] has as its target recombinant human EGFR L858R/C797S double mutant protein (Homo sapiens (Human), UniProt P00533, C797S/L858R). The assay is described as follows: Biological Activity Assay B: biochemical assay against EGFR L858R/C797S protein (EGFR LR/CS). As to the method:
In Row A of a 384-well polypropylene plate, was added 48 μL of DMSO. In wells A1 and A24, were added 12 μL of DMSO. […] To a well in Row A were added 12 μL of each 10 mM test compound stock (100% DMSO). […] The final intermediate dilution plate contained 4×16-point compound serial dilutions in assay buffer. The DMSO concentration was 10%. The intermediate compound dilution plate was transferred to the Bravo and the “5 uL dispense into ARP.pro” protocol was run. To the black low volume assay ready plates, were added 5 μL of 40 uM Phosphosens peptide sensor/4 mM ATP working solution to each well. […] To column 24, was added 10 μL of assay buffer. The final DMSO concentration was 2.5%. […] The plates were sealed with the TopSeal-A Plus plate seals. […] Set for 90 cycles with 120 second interval. […] The slope of each curve was constructed using Dotmatics in each well, and each IC50s was calculated using a 4-parameter fit model.

Another assay deals with BaF3_EGFR d19/CS cells. The assay is described as follows: Biological Activity Assay D: BaF3 cell proliferation assay, EGFR exon 19 deletion/C797S (BaF3 d19/CS). The format is cell-based. The note with it: Ba/F3 EGFR, read-out: BaF3 d19/CS IC50.
Where [3] appears, read: BaF3_EGFR LR/CS cells, ~72 hours, CellTiter-Glo.
The mark [4] stands for this setting: Ba/F3_EGFR WT cells, ~72 hours, CellTiter-Glo.
Setting [5] is: BaF3_EGFR d19/CS cells, ~72 hours, CellTiter-Glo.

IC50 data for 16 compounds are collected here from patent US20250034159A1, “INHIBITORS OF EPIDERMAL GROWTH FACTOR RECEPTOR” (ORIC Pharmaceuticals, Inc., priority 2021, published 2025).

Where two headings read alike, the source gives them in different places.

Chain of recombinant human EGFR exon 19 deletion/C797S double mutant protein (P00533 other isoform, or with tags, fused parts or gaps C797S/del 1-668/del 746-750 limits assumed): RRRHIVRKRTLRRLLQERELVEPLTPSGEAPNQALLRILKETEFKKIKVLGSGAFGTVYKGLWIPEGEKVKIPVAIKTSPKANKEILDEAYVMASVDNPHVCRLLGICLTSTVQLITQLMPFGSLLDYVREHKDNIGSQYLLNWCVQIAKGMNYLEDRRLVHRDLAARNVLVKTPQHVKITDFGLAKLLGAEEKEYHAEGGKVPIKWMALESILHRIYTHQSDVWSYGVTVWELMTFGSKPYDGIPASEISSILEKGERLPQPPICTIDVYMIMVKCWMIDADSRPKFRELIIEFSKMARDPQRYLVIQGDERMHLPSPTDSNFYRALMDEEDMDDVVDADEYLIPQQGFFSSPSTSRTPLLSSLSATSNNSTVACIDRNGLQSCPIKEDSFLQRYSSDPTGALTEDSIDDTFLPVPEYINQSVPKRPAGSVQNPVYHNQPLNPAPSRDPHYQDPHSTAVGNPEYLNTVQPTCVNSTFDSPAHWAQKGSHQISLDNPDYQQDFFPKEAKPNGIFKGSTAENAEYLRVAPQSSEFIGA
Chain of recombinant human EGFR L858R/C797S double mutant protein (P00533 25-1210 C797S/L858R): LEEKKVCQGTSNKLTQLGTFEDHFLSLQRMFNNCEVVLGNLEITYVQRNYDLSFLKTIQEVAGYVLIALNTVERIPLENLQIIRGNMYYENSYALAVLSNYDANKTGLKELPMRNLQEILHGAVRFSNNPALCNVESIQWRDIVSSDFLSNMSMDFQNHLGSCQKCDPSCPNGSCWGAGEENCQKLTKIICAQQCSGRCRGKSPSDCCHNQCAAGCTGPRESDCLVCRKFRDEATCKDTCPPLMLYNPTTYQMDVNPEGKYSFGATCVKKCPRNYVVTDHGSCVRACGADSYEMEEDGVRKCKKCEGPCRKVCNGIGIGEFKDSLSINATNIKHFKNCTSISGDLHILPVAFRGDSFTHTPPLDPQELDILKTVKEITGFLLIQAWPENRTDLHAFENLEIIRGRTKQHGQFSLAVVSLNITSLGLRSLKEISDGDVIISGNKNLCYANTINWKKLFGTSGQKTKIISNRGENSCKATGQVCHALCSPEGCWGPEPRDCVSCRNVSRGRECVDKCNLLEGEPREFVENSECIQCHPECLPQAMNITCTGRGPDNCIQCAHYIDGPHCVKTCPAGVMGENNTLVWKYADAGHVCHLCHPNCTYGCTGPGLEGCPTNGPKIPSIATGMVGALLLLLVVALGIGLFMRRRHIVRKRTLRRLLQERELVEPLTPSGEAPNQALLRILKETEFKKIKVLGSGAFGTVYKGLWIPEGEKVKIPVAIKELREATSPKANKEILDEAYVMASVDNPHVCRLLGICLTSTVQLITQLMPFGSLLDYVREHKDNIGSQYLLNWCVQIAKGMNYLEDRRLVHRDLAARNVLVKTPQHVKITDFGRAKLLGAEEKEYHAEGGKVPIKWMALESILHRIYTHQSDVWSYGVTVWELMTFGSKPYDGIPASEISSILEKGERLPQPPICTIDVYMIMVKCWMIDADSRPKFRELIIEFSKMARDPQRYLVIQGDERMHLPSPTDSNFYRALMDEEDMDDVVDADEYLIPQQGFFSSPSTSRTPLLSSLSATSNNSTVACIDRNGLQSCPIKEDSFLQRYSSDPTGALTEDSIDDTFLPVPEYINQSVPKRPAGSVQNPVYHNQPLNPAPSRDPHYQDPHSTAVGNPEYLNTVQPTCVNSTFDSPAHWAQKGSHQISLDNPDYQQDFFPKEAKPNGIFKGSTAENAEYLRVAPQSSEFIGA

Regarding `OCCn1nc(-c2ccc(F)cc2)c(-c2ncnc3[nH]c(-c4ccccc4)nc23)n1` [Example 27, 2-[4-(4-Fluorophenyl)-5-(8-phenyl-9H-purin-6-yl)-2H-1,2,3-triazol-2-yl]ethan-1-ol], the IC50 came out at 3.12 nM in assay [1]; 208 nM in the assay with BaF3_EGFR LR/CS cells (setting [3]); 11700 nM in the assay with Ba/F3_EGFR WT cells (setting [4]); 8.65 nM in assay [2]; 464 nM with BaF3_EGFR d19/CS cells (setting [5]).
Taken in the same sequence, the figures for `OCCCCn1nc(-c2ccc(F)cc2)c(-c2ncnc3[nH]c(-c4ccccc4)nc23)n1` [Example 28, 4-[4-(4-fluorophenyl)-5-(8-phenyl-9H-purin-6-yl)-2H-1,2,3-triazol-2-yl]butan-1-ol] were 4.16 nM, 493 nM, 17800 nM, 10.8 nM and 885 nM.
For `CN1CCN(c2ccc(-c3cc4c(-c5oc(CCCO)nc5-c5ccc(F)cc5)ccnc4[nH]3)cc2)CC1` [Example 29, 3-[4-(4-Fluorophenyl)-5-{2-[4-(4-methylpiperazin-1-yl)phenyl]-1H-pyrrolo[2,3-b]pyridin-4-yl}-1,3-oxazol-2-yl]propan-1-ol] the same measures were 0.0769 nM, 1.29 nM, 88.4 nM, 0.111 nM and 1.22 nM.
Taken in the same sequence, the figures for `N#CCn1cc(-c2ncnc3oc(-c4ccccc4)cc23)c(-c2ccc(F)cc2)n1` [Example 30] were 1.88 nM, 260 nM, 4440 nM, 1.72 nM and 319 nM.
With `Fc1ccc(-c2nn(C3COC3)cc2-c2ncnc3oc(-c4ccccc4)cc23)cc1` [Example 31, 4-[3-(4-Fluorophenyl)-1-(oxetan-3-yl)-1H-pyrazol-4-yl]-6-phenylfuro[2,3-d]pyrimidine], the IC50 in assay [1] is 0.446 nM; in the assay on BaF3_EGFR LR/CS cells (setting [3]), 97.9 nM; in the assay with Ba/F3_EGFR WT cells (setting [4]), 3320 nM; in assay [2], 0.521 nM; with BaF3_EGFR d19/CS cells (setting [5]), 66.5 nM.
For `Fc1ccc(-c2nn(CC3(F)COC3)cc2-c2ncnc3oc(-c4ccccc4)cc23)cc1` [Example 32, 4-{1-[(3-fluorooxetan-3-yl)methyl]-3-(4-fluorophenyl)-1H-pyrazol-4-yl}-6-phenylfuro[2,3-d]pyrimidine] the same measures were 1.26 nM, 130 nM, 4730 nM, 1.36 nM and 114 nM.
Take `CN1CCN(c2ccc(-c3cc4c(-c5cn(CCCO)nc5-c5ccc(F)cc5)ncnc4o3)cc2)CC1` [Example 33, 3-[3-(4-Fluorophenyl)-4-{6-[4-(4-methylpiperazin-1-yl)phenyl]furo[2,3-d]pyrimidin-4-yl}-1H-pyrazol-1-yl]propan-1-ol]: the IC50 in assay [1] worked out at 0.119 nM; in the assay on BaF3_EGFR LR/CS cells (setting [3]), 1.16 nM; in the assay with Ba/F3_EGFR WT cells (setting [4]) it was 38 nM; in assay [2] it was 0.212 nM; in the assay with BaF3_EGFR d19/CS cells (setting [5]), 1.08 nM.
For `CC(C)(O)CCn1cc(-c2ncnc3oc(-c4ccccc4)cc23)c(-c2ccc(F)cc2)n1` [Example 34, 4-[3-(4-fluorophenyl)-4-(6-phenylfuro[2,3-d]pyrimidin-4-yl)-1H-pyrazol-1-yl]-2-methylbutan-2-ol] the same measures were 1.59 nM, 225 nM, 7780 nM, 1.17 nM and 122 nM.
Turning to `OCCCc1nc(-c2ccc(F)cc2)c(-c2ncnc3oc(-c4ccccc4)cc23)o1` [Example 35, 3-[4-(4-Fluorophenyl)-5-(6-phenylfuro[2,3-d]pyrimidin-4-yl)-1,3-oxazol-2-yl]propan-1-ol], the IC50 in assay [1] worked out at 0.54 nM; in the assay with BaF3_EGFR LR/CS cells (72 h), 134 nM; in the assay on Ba/F3_EGFR WT cells (72 h) it was 5950 nM; in assay [2] it was 0.958 nM; in the assay with BaF3_EGFR d19/CS cells (72 h), 185 nM.
Turning to `CNC(=O)CCc1nc(-c2ccc(F)cc2)c(-c2ncnc3oc(-c4ccccc4)cc23)o1` [Example 36, 3-[4-(4-fluorophenyl)-5-(6-phenylfuro[2,3-d]pyrimidin-4-yl)-1,3-oxazol-2-yl]-N-methylpropanamide], the IC50 in assay [1] stood at 1.35 nM; with BaF3_EGFR LR/CS cells (setting [3]), 209 nM; in the assay with Ba/F3_EGFR WT cells (setting [4]), 20000 nM; in assay [2] it was 1.13 nM; with BaF3_EGFR d19/CS cells (setting [5]), 339 nM.
For `CN(C)C(=O)CCc1nc(-c2ccc(F)cc2)c(-c2ncnc3oc(-c4ccccc4)cc23)o1` [Example 37, 3-[4-(4-fluorophenyl)-5-(6-phenylfuro[2,3-d]pyrimidin-4-yl)-1,3-oxazol-2-yl]-N,N-dimethylpropanamide] the same measures were 2.6 nM, 318 nM, 6280 nM, 1.87 nM and 514 nM.
For the compound `CS(=O)(=O)CCn1cc(-c2ncnc3oc(-c4ccccc4)cc23)c(-c2ccc(F)cc2)n1` [Example 38, 4-{3-(4-Fluorophenyl)-1-[2-(methanesulfonyl)ethyl]-1H-pyrazol-4-yl}-6-phenylfuro[2,3-d]pyrimidine], the IC50 turned out to be 0.856 nM in assay [1]; 121 nM in the assay with BaF3_EGFR LR/CS cells (setting [3]); 2170 nM in the assay on Ba/F3_EGFR WT cells (setting [4]); 0.434 nM in assay [2]; 44.8 nM in the assay on BaF3_EGFR d19/CS cells (setting [5]).
For `CS(=O)(=O)n1cc(-c2ncnc3oc(-c4ccccc4)cc23)c(-c2ccc(F)cc2)n1` [Example 39, 4-[3-(4-fluorophenyl)-1-(methanesulfonyl)-1H-pyrazol-4-yl]-6-phenylfuro[2,3-d]pyrimidine] the same measures were 5.19 nM, 161 nM, 1920 nM, 6.14 nM and 147 nM.
For the compound `O=S1(=O)CC(n2cc(-c3ncnc4oc(-c5ccccc5)cc34)c(-c3ccc(F)cc3)n2)C1` [Example 40, 3-[3-(4-Fluorophenyl)-4-(6-phenylfuro[2,3-d]pyrimidin-4-yl)-1H-pyrazol-1-yl]-1λ6-thietane-1,1-dione], the IC50 amounted to 0.192 nM in assay [1]; 36.4 nM with BaF3_EGFR LR/CS cells (setting [3]); 2100 nM in the assay on Ba/F3_EGFR WT cells (setting [4]); 0.327 nM in assay [2]; 22 nM with BaF3_EGFR d19/CS cells (setting [5]).
Turning to `O=S1(=O)CCC(n2cc(-c3ncnc4oc(-c5ccccc5)cc34)c(-c3ccc(F)cc3)n2)C1` (centres unmarked) [Example 41, 3-[3-(4-fluorophenyl)-4-(6-phenylfuro[2,3-d]pyrimidin-4-yl)-1H-pyrazol-1-yl]-1λ6-thiolane-1,1-dione], the IC50 came to 0.375 nM in assay [1]; 61.6 nM in the assay on BaF3_EGFR LR/CS cells (setting [3]); 2390 nM in the assay on Ba/F3_EGFR WT cells (setting [4]); 0.518 nM in assay [2]; 34.7 nM with BaF3_EGFR d19/CS cells (setting [5]).
For `O[C@H]1C[C@@H](Cn2cc(-c3ncnc4oc(-c5ccccc5)cc34)c(-c3ccc(F)cc3)n2)C1` [Example 42, (1s, 3s)-3-{[3-(4-Fluorophenyl)-4-(6-phenylfuro[2,3-d]pyrimidin-4-yl)-1H-pyrazol-1-yl]methyl}cyclobutan-1-ol], the IC50 in assay [1] was determined as 0.335 nM; with BaF3_EGFR LR/CS cells (setting [3]), 57.5 nM; in the assay on Ba/F3_EGFR WT cells (setting [4]), 2090 nM; in assay [2], 0.527 nM; in the assay on BaF3_EGFR d19/CS cells (setting [5]) it was 37.5 nM.
